Reference: PubChem BioAssay (NCI)
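Exposure lasted 48 hours, with cells grown in 96-well plates and compounds tested at five concentrations. TGI denotes the concentration required for complete inhibition of growth.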

Assays:
Experiment in all cases: inhibition of tumour cell growth, NCI panel, 48 h
[1] = tested on: SF-295 CNS
[2] = tested on: NCI-H226 lung
[3] = tested on: HOP-62 NSCLC
[4] = tested on: BT-549 breast
[5] = tested on: SK-MEL-28 melanoma
[6] = tested on: NCI-H23 lung
[7] = tested on: RPMI-8226 leukemia
[8] = tested on: A498 renal
[9] = tested on: M14 melanoma
[10] = tested on: HCC-2998 colon
[11] = tested on: MDA-MB-435
[12] = tested on: SK-OV-3 ovarian
[13] = tested on: SK-MEL-5 melanoma
[14] = tested on: HCT-116 colon
[15] = tested on: CCRF-CEM leukemia
[16] = tested on: PC-3 prostate
[17] = tested on: SK-MEL-2 melanoma
[18] = tested on: HOP-92 NSCLC
[19] = tested on: K-562 leukemia
[20] = tested on: TK-10 renal
[21] = tested on: COLO 205 colon
[22] = tested on: UACC-62 melanoma
[23] = tested on: SF-539 CNS
[24] = tested on: NCI/ADR-RES ovarian
[25] = tested on: MOLT-4 leukemia
[26] = tested on: SF-268 CNS
[27] = tested on: NCI-H460 lung
[28] = tested on: IGROV1 ovarian
[29] = tested on: U251 CNS
[30] = tested on: SW-620 colon
[31] = tested on: MCF7 breast
[32] = tested on: MALME-3M melanoma
[33] = tested on: OVCAR-4 ovarian
[34] = tested on: KM12 colon
[35] = tested on: LOX IMVI melanoma
[36] = tested on: OVCAR-5 ovarian
[37] = tested on: UO-31 renal
[38] = tested on: MDA-MB-231 breast
[39] = tested on: HL-60(TB) leukemia
[40] = tested on: RXF 393 renal
[41] = tested on: HT29 colon
[42] = tested on: T-47D breast
[43] = tested on: CAKI-1 renal
[44] = tested on: ACHN renal
[45] = tested on: DU-145 prostate
[46] = tested on: UACC-257 melanoma
[47] = tested on: SNB-75 CNS
[48] = tested on: MDA-N
[49] = tested on: HS 578T breast
[50] = tested on: EKVX NSCLC
[51] = tested on: SN12C renal
[52] = tested on: SNB-19 CNS
[53] = tested on: OVCAR-3 ovarian
[54] = tested on: A549 NSCLC
[55] = tested on: 786-0 renal
[56] = tested on: OVCAR-8 ovarian
[57] = tested on: HCT-15 colon
[58] = tested on: NCI-H522 lung
[59] = tested on: SR leukemia

SMILES: O=C(c1cc(Br)ccc1O)c1cc(Br)ccc1O
- TGI [1]: 33.7 µM
- TGI [2]: 42 µM
- TGI [3]: 34.3 µM
- TGI [4]: 33.9 µM
- TGI [5]: 31.1 µM
- TGI [6]: 35.4 µM
- TGI [7]: 30.4 µM
- TGI [8]: 31.4 µM
- TGI [9]: 29.1 µM
- TGI [10]: 33.2 µM
- TGI [11]: 29.3 µM
- TGI [12]: 35.8 µM
- TGI [13]: 25.4 µM
- TGI [14]: 29.4 µM
- TGI [15]: 44.4 µM
- TGI [16]: 30.8 µM
- TGI [17]: 30.1 µM
- TGI [18]: 27.1 µM
- TGI [19]: 33.5 µM
- TGI [20]: 33 µM
- TGI [21]: 33.4 µM
- TGI [22]: 25.8 µM
- TGI [23]: 38.2 µM
- TGI [24]: 44.7 µM
- TGI [25]: 39 µM
- TGI [26]: 42.4 µM
- TGI [27]: 32.1 µM
- TGI [28]: 27.8 µM
- TGI [29]: 28.8 µM
- TGI [30]: 30.6 µM
- TGI [31]: 31.3 µM
- TGI [32]: 31.6 µM
- TGI [33]: 30.2 µM
- TGI [34]: 30.8 µM
- TGI [35]: 36.8 µM
- TGI [36]: 33.3 µM
- TGI [37]: 27.4 µM
- TGI [38]: 33.5 µM
- TGI [39]: 44.1 µM
- TGI [40]: 27.9 µM
- TGI [41]: 31.7 µM
- TGI [42]: 29.2 µM
- TGI [43]: 32.2 µM
- TGI [44]: 29.9 µM
- TGI [45]: 29.2 µM
- TGI [46]: 29.1 µM
- TGI [47]: 29.9 µM
- TGI [48]: 29.5 µM
- TGI [49]: > 100 µM
- TGI [50]: 30.3 µM
- TGI [51]: 32.6 µM
- TGI [52]: 32.3 µM
- TGI [53]: 29.2 µM
- TGI [54]: 32 µM
- TGI [55]: 30.6 µM
- TGI [56]: 32 µM
- TGI [57]: 38.5 µM
- TGI [58]: 33 µM

SMILES: C/C(=N\NC(=O)/C(C#N)=C\c1ccc(N(CCC#N)CCC#N)cc1)c1ccccc1
- TGI [1]: > 10 µM
- TGI [2]: > 10 µM
- TGI [3]: > 10 µM
- TGI [4]: > 10 µM
- TGI [5]: > 10 µM
- TGI [6]: > 10 µM
- TGI [7]: > 10 µM
- TGI [9]: > 10 µM
- TGI [10]: > 10 µM
- TGI [11]: > 10 µM
- TGI [12]: > 10 µM
- TGI [13]: > 10 µM
- TGI [14]: > 10 µM
- TGI [16]: > 10 µM
- TGI [18]: > 10 µM
- TGI [20]: > 10 µM
- TGI [21]: > 10 µM
- TGI [22]: > 10 µM
- TGI [59]: > 10 µM
- TGI [23]: > 10 µM
- TGI [24]: > 10 µM
- TGI [25]: > 10 µM
- TGI [26]: > 10 µM
- TGI [27]: > 10 µM
- TGI [28]: > 10 µM
- TGI [30]: > 10 µM
- TGI [31]: > 10 µM
- TGI [32]: > 10 µM
- TGI [33]: > 10 µM
- TGI [34]: > 10 µM
- TGI [35]: > 10 µM
- TGI [37]: > 10 µM
- TGI [38]: > 10 µM
- TGI [39]: > 10 µM
- TGI [40]: > 10 µM
- TGI [41]: > 10 µM
- TGI [42]: > 10 µM
- TGI [43]: > 10 µM
- TGI [44]: > 10 µM
- TGI [45]: > 10 µM
- TGI [46]: > 10 µM
- TGI [47]: > 10 µM
- TGI [48]: > 10 µM
- TGI [49]: > 10 µM
- TGI [50]: > 10 µM
- TGI [51]: > 10 µM
- TGI [52]: > 10 µM
- TGI [54]: > 10 µM
- TGI [55]: > 10 µM
- TGI [56]: > 10 µM
- TGI [57]: > 10 µM
- TGI [58]: > 10 µM
